# Reference: patent US8426447B2, “Spiro-tricyclic ring compounds as beta-secretase modulators and methods of use” (Amgen Inc., priority 2008, dated 2013)
# Experiments:
# [1] = biological target: T1, BACE1 (Homo sapiens, UniProt P56817); assay: In Vitro BACE Cell-based Assay (HEK cell assay): Aβ40 in conditioned medium of cells stably expressing Amyloid Precursor Protein, sandwich ELISA
# How it was run: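 First, APP-stable cells grow 24 h at 37° C., 5% CO2. Next, test compounds are added for 24 h (10 doses, 0.1% DMSO). Finally, medium Aβ40 is determined by pAb40/6E10 sandwich ELISA with Europium TRF, and IC50 is calculated.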
# [2] = biological target: T1, BACE1; assay: In Vitro Enzymatic BACE FRET (Fluorescence Resonance Energy Transfer) Assay; assay type: biochemical
# How it was run: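 Buffer 0.05 M acetate pH 4.2 with 10% DMSO final and 100 uM genapol; reaction started with 50 nM FRET peptide substrate (fluorophore/quencher flanking BACE cleavage site), incubated one hour. Stopped with Tris buffer raising pH to neutrality, then fluorescence read.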
# [3] = Table IV, class symbols, read-out: HEK cell assay
# [4] = Table IV, class symbols, read-out: BACE1 FRET assay
# [5] = Table III, IC50's in uM ranges, read-out: HEK cell assay
# [6] = Table III, IC50's in uM ranges, read-out: BACE1 FRET assay
# [7] = Table 1, Aβ40, 24 h incubation, read-out: HEK cell assay
# [8] = Table 1, read-out: BACE1 FRET assay
# [9] = HEK cells, read-out: HEK cell assay
# T1 sequence (P56817 46-501, species assumed): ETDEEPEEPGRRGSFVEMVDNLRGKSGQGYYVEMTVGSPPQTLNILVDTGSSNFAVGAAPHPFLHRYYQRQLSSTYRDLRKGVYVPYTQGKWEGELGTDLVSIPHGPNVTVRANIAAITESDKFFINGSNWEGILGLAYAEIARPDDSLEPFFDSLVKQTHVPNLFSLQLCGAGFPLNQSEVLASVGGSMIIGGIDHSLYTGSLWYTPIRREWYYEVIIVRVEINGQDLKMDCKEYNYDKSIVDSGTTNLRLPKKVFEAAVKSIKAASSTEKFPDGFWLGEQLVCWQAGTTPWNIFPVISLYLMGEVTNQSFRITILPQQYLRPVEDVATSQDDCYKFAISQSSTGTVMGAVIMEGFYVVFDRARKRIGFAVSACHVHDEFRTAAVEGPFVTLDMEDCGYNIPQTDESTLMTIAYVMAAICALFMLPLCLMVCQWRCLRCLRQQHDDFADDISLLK
structure (smiles),measurement,setting,value
COc1ccc2c(c1)[C@@]1(COC(N)=N1)c1c(ccc(-c3cncnc3)c1F)O2 [compound 816],IC50,[1]; [3],> 5 µM
same,IC50,[2]; [4],> 5 µM
NC1=N[C@]2(CO1)c1cc(-c3cccnc3)ccc1Oc1ncc(-c3cccnc3)cc12 [compound 157],IC50,[1]; [5],< 0.1 µM
same,IC50,[2]; [6],< 0.1 µM
COC(C)(C)C#Cc1ccc2c(c1)[C@@]1(COC(N)=N1)c1cc(-c3ccc(C)cc3)cnc1O2 [compound 577],IC50,[1]; [3],< 0.1 µM
same,IC50,[2]; [4],< 0.1 µM
Cc1noc(C)c1-c1ccc2c(c1)[C@]1(COC(N)=N1)c1cc(OCC(C)(C)C)ccc1O2 [compound 189],IC50,[1]; [5],> 5 µM
same,IC50,[2]; [6],0.1 to 1 µM
CC(=O)COc1ccc2c(c1)[C@]1(COC(N)=N1)c1cc(C#CC3CC3)ccc1O2 [compound 200],IC50,[1]; [5],0.1 to 1 µM
same,IC50,[2]; [6],0.1 to 1 µM
NC1=N[C@]2(CO1)c1cc(-c3cccnc3)ccc1Oc1c(F)cc(C3=CCOCC3)cc12 [compound 644],IC50,[1]; [3],1 to 5 µM
same,IC50,[2]; [4],0.1 to 1 µM
CC(C)(C)COc1ccc2c(c1)[C@]1(COC(N)=N1)c1cc(-c3cccnc3C(F)(F)F)ccc1O2 [compound 911],IC50,[1]; [3],> 5 µM
same,IC50,[2]; [4],0.1 to 1 µM
CCCOc1cc2c(cc1F)Oc1ccc(-c3cccnc3)cc1[C@@]21COC(N)=N1 [compound 938],IC50,[1]; read-out: HEK cell assay,< 0.1 µM
same,IC50,[2]; read-out: BACE1 FRET assay,< 0.1 µM
CC(C)(O)C#Cc1cnc2c(c1)[C@]1(COC(N)=N1)c1cc(-c3ccccc3)ccc1O2 [compound 647],IC50,[1]; [3],< 0.1 µM
same,IC50,[2]; [4],< 0.1 µM
COC(C)(C)C#Cc1cc(F)c2c(c1)[C@]1(COC(N)=N1)c1cc(-c3ccc(F)nc3)ccc1O2 [compound 646],IC50,[1]; [3],< 0.1 µM
same,IC50,[2]; [4],< 0.1 µM
"COc1ccc2c(c1)C1(COC(N)=N1)c1cc(-c3cncnc3)ccc1O2 (stereo not shown) [Example 14, 2′-methoxy-7′-(5-pyrimidinyl)spiro[1,3-oxazole-4,9′-xanthen]-2-amine]",IC50,[1]; [7],1 to 5 µM
same,IC50,[2]; [8],0.1 to 1 µM
"COc1ccc2c(c1)C1(COC(N)=N1)c1cc(-c3cccc(OC(F)(F)F)c3)ccc1O2 (stereo not shown) [Example 22, 2′-methoxy-7′-(3-(trifluoromethoxy)phenyl)spiro[1,3-oxazole-4,9′-xanthen]-2-amine]",IC50,[1]; [7],1 to 5 µM
same,IC50,[2]; [8],1 to 5 µM
NC1=N[C@@]2(CO1)c1cc(-c3cc(F)ccc3F)ccc1Oc1ncc(C3=CCOCC3)cc12 [compound 487],IC50,[1]; [9],< 0.1 µM
same,IC50,[2]; read-out: BACE1 FRET assay,< 0.1 µM
NC1=N[C@@]2(CO1)c1cc(-c3cncnc3)ccc1Oc1ccc(C(F)(F)F)cc12 [compound 597],IC50,[1]; [3],0.1 to 1 µM
same,IC50,[2]; [4],0.1 to 1 µM
CC1(COc2ccc3c(c2)[C@@]2(COC(N)=N2)c2cc(-c4ccc(F)cc4)cnc2O3)COC1 [compound 775],IC50,[1]; read-out: HEK cell assay,< 0.1 µM
same,IC50,[2]; read-out: BACE1 FRET assay,< 0.1 µM
CC1(C)C[C@H](c2cc3c(cn2)Oc2ccc(-c4cccnc4F)cc2[C@@]32COC(N)=N2)CCO1 [compound 432],IC50,[1]; [9],< 0.1 µM
same,IC50,[2]; read-out: BACE1 FRET assay,< 0.1 µM
CC(C)(C)CCc1ccc2c(c1)[C@]1(COC(N)=N1)c1cc(-c3cccnc3)cnc1O2 [182b],IC50,[1]; [5],0.1 to 1 µM
same,IC50,[2]; [6],< 0.1 µM
NC1=N[C@]2(CO1)c1cc(OC3COC3)ccc1Oc1ccc(-c3cccnc3)cc12 [compound 777],IC50,[1]; read-out: HEK cell assay,0.1 to 1 µM
same,IC50,[2]; read-out: BACE1 FRET assay,0.1 to 1 µM
COC(=O)/C=C/c1ccc2c(c1)[C@@]1(COC(N)=N1)c1cc(-c3cccnc3)ccc1O2 [compound 918],IC50,[1]; [3],0.1 to 1 µM
same,IC50,[2]; [4],0.1 to 1 µM
N#Cc1ccc(-c2cc3c(cn2)Oc2ccc(-c4cccnc4F)cc2[C@@]32COC(N)=N2)cc1 [compound 372],IC50,"[1]; HEK cell-based assay, Aβ40 in conditioned medium, IC50 class symbols, read-out: HEK cell assay",< 0.1 µM
same,IC50,"[2]; in vitro BACE FRET enzyme assay, IC50 class symbols, read-out: BACE1 FRET assay",< 0.1 µM
CC(=O)COc1ccc2c(c1)[C@@]1(COC(N)=N1)c1cc(-c3cccnc3)cnc1O2 [compound 926],IC50,[1]; read-out: HEK cell assay,0.1 to 1 µM
same,IC50,[2]; read-out: BACE1 FRET assay,0.1 to 1 µM
CC(C)(O)COc1ccc2c(c1)[C@]1(COC(N)=N1)c1cc(C#CC3CC3)ccc1O2 [compound 937],IC50,[1]; read-out: HEK cell assay,0.1 to 1 µM
same,IC50,[2]; read-out: BACE1 FRET assay,< 0.1 µM
NC1=N[C@@]2(CO1)c1cc(-c3cccnc3)ccc1Oc1ccc(-c3cncnc3)cc12 [compound 225],IC50,[1]; [5],< 0.1 µM
same,IC50,[2]; [6],< 0.1 µM
CCC1(CC)CN(c2ccc3c(c2)[C@]2(COC(N)=N2)c2cc(-c4cncnc4)ccc2O3)CCO1 [compound 467],IC50,[1]; [9],0.1 to 1 µM
same,IC50,[2]; read-out: BACE1 FRET assay,< 0.1 µM
CN(C)CC#Cc1ccc2c(c1)[C@@]1(COC(N)=N1)c1cc(-c3cncnc3)ccc1O2 [117b],IC50,[1]; [5],0.1 to 1 µM
same,IC50,[2]; [6],1 to 5 µM
"NC1=N[C@@]2(CO1)c1cc(-c3cccnc3F)ccc1Oc1cnc(C3=CCOCC3)cc12 [Example 294, (S)-3-(3,6-dihydro-2H-pyran-4-yl)-7-(2-fluoropyridin-3-yl)-5′H-spiro[chromeno[2,3-c]pyridine-5,4′-oxazol]-2′-amine]",IC50,"[1]; HEK cell assay, Table IV, class symbols",< 0.1 µM
same,IC50,"[2]; BACE1 FRET assay, Table IV, class symbols",< 0.1 µM
"CC(C)(C)C#Cc1ccc2c(c1)[C@]1(COC(N)=N1)c1cc(Oc3ccccn3)ccc1O2 [Example 112, (4R)-2′-(3,3-dimethyl-1-butyn-1-yl)-7′-(2-pyridinyloxy)spiro[1,3-oxazole-4,9′-xanthen]-2-amine]",IC50,[1]; [5],0.1 to 1 µM
same,IC50,[2]; [6],< 0.1 µM
NC1=N[C@]2(CO1)c1cc(Br)ccc1Oc1c(F)cccc12 [compound 559],IC50,[1]; [3],> 5 µM
same,IC50,[2]; [4],> 5 µM
NC1=N[C@]2(CO1)c1cc(Oc3ccccn3)ccc1Oc1ccc(-c3cncnc3)cc12 [compound 209],IC50,[1]; [5],0.1 to 1 µM
same,IC50,[2]; [6],< 0.1 µM
CN1CCN(c2cc3c(cn2)Oc2ccc(-c4cccnc4)cc2[C@@]32COC(N)=N2)CC1 [compound 444],IC50,[1]; [9],< 0.1 µM
same,IC50,[2]; read-out: BACE1 FRET assay,< 0.1 µM
CC1(COc2ccc3c(c2)[C@@]2(COC(N)=N2)c2cc(C#CC4CC4)cnc2O3)COC1 [compound 967],IC50,[1]; read-out: HEK cell assay,0.1 to 1 µM
same,IC50,[2]; read-out: BACE1 FRET assay,< 0.1 µM
NC1=N[C@@]2(CO1)c1cc(-c3cncnc3)ccc1Oc1c(F)cc(OCC3CC3(F)F)cc12 (stereo partly shown) [compound 507],IC50,[1]; [9],< 0.1 µM
same,IC50,[2]; read-out: BACE1 FRET assay,< 0.1 µM
COc1ccc2c(c1)[C@]1(COC(N)=N1)c1cc(-c3cccc4cccnc34)ccc1O2 [compound 590],IC50,[1]; [3],1 to 5 µM
same,IC50,[2]; [4],1 to 5 µM
Cc1cccc(-c2ccc3c(c2)[C@]2(COC(N)=N2)c2cccnc2O3)c1 [compound 596],IC50,[1]; [3],1 to 5 µM
same,IC50,[2]; [4],0.1 to 1 µM
NC1=N[C@]2(CO1)c1cc(C3=CCNCC3)ccc1Oc1ccc(-c3cccnc3)cc12 [compound 810],IC50,[1]; [3],< 0.1 µM
same,IC50,[2]; [4],< 0.1 µM
"CC1(C)C=C(c2cc3c(cn2)Oc2ccc(-c4cccnc4)cc2[C@@]32COC(N)=N2)CCO1 [compound 437, (5S)-3-(6,6-dimethyl-3,6-dihydro-2H-pyran-4-yl)-7-(3-pyridinyl)spiro[chromeno[2,3-c]pyridine-5,4′-[1,3]oxazol]-2′-amine]",IC50,[1]; [9],< 0.1 µM
same,IC50,[2]; read-out: BACE1 FRET assay,< 0.1 µM
NC1=N[C@]2(CO1)c1cc(-c3cccc(OC(F)(F)F)c3)ccc1Oc1ncccc12 [compound 595],IC50,[1]; [3],1 to 5 µM
same,IC50,[2]; [4],0.1 to 1 µM
"CC(C)(C)COc1ccc2c(c1)[C@@]1(COC(N)=N1)c1cc(-c3cc(Cl)ccc3F)cnc1O2 [Example 90, (5S)-3-(5-chloro-2-fluorophenyl)-7-(2,2-dimethylpropoxy)spiro[chromeno[2,3-b]pyridine-5,4′-[1,3]oxazol]-2′-amine]",IC50,"[1]; Table II, Aβ40, 24 h incubation, read-out: HEK cell assay",1 to 5 µM
same,IC50,"[2]; Table II, read-out: BACE1 FRET assay",< 0.1 µM
C[C@](O)(C#Cc1ccc2c(c1)[C@]1(COC(N)=N1)c1cc(-c3cccnc3)ccc1O2)C(F)(F)F [compound 698],IC50,[1]; read-out: HEK cell assay,< 0.1 µM
same,IC50,[2]; read-out: BACE1 FRET assay,< 0.1 µM
NC1=NC2(CO1)c1cnccc1Oc1ccc(-c3cccnc3)cc12 (stereo not shown) [compound 648],IC50,[1]; [3],1 to 5 µM
same,IC50,[2]; [4],1 to 5 µM
CC(C)c1nc(-c2ccc3c(c2)[C@@]2(COC(N)=N2)c2cc(OCC(C)(C)C)ccc2O3)cs1 [compound 832],IC50,[1]; [3],1 to 5 µM
same,IC50,[2]; [4],0.1 to 1 µM
Cc1cc(-c2cc3c(cn2)Oc2ccc(-c4cccnc4F)cc2[C@@]32COC(N)=N2)ccn1 [compound 429],IC50,"[1]; HEK cell assay (uM), HEK cells",< 0.1 µM
same,IC50,[2]; BACE1 FRET assay (uM),< 0.1 µM
"COC(C)(C)C#Cc1ccc2c(c1)C1(COC(N)=N1)c1cc(C#CC(C)(C)OC)ccc1O2 [Example 119, 2′,7′-bis(3-methoxy-3-methylbut-1-ynyl)-5H-spiro[oxazole-4,9′-xanthen]-2-amine]",IC50,[1]; [5],0.1 to 1 µM
same,IC50,[2]; [6],0.1 to 1 µM
CC(C)(C)COc1ccc2c(c1)[C@@]1(COC(N)=N1)c1cc(-c3cncc(F)c3)cnc1O2 [compound 753],IC50,[1]; read-out: HEK cell assay,< 0.1 µM
same,IC50,[2]; read-out: BACE1 FRET assay,< 0.1 µM
